The source of these data is publication PMC9516332 (Frontiers in Oncology, 2022).

Where two headings read alike, the source gives them in different places.

Common to all, as to assay: Kinase panel profiling at 1 µmol/L (MSA or IMAP), percentage inhibition
Holding throughout (type): biochemical

The target of assay [1] is T1, panel of 255 wild-type kinases (Homo sapiens, UniProt Q9NZJ5).
T1 sequence (Q9NZJ5 30-1116): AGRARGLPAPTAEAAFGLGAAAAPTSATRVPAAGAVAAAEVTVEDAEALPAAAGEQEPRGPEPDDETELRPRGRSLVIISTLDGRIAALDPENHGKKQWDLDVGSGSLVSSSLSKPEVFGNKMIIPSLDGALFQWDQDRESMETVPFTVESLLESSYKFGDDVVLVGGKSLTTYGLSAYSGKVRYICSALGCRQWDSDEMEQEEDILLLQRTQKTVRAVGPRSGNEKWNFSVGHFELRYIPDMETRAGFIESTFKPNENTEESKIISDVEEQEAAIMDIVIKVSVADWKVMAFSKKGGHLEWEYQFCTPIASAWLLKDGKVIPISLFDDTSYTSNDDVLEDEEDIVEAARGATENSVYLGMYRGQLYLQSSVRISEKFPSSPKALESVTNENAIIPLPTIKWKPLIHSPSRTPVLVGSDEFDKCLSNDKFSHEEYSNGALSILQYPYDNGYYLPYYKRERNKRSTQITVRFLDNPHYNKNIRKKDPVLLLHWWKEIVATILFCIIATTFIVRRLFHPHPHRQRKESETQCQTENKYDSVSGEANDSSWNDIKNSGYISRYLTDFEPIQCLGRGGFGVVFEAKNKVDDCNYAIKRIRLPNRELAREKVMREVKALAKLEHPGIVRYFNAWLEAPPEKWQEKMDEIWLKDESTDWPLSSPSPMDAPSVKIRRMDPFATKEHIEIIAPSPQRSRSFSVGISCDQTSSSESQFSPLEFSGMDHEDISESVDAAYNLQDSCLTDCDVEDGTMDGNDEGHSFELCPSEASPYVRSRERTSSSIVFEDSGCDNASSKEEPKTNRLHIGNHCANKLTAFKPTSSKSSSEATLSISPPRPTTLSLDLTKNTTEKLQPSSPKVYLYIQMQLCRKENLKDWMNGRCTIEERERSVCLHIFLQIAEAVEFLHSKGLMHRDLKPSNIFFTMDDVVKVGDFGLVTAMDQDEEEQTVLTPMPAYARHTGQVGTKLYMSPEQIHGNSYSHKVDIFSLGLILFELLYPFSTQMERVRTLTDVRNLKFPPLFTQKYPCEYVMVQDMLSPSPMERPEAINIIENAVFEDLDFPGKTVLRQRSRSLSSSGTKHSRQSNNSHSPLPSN
Conditions: kinase PEK; 1 µmol/L single concentration; read-out: %-inhibition at 1 µmol/L, PEK.

Assay [2] addresses panel of 255 wild-type kinases (Homo sapiens, UniProt Q9H4A3). The note with it: kinase WNK1; 1 µmol/L single concentration; read-out: %-inhibition at 1 µmol/L, WNK1.
Assay [3] has as its target panel of 255 wild-type kinases (Homo sapiens, UniProt Q14289). The note with it: kinase PYK2; 1 µmol/L single concentration; read-out: %-inhibition at 1 µmol/L, PYK2.
Assay [4] deals with panel of 255 wild-type kinases (Homo sapiens, UniProt Q15303). Conditions: read-out: %-inhibition at 1 µmol/L, HER4.
For assay [5], the target named is T2, panel of 255 wild-type kinases (Homo sapiens, UniProt Q9BZL6).
T2 sequence (Q9BZL6 1-878): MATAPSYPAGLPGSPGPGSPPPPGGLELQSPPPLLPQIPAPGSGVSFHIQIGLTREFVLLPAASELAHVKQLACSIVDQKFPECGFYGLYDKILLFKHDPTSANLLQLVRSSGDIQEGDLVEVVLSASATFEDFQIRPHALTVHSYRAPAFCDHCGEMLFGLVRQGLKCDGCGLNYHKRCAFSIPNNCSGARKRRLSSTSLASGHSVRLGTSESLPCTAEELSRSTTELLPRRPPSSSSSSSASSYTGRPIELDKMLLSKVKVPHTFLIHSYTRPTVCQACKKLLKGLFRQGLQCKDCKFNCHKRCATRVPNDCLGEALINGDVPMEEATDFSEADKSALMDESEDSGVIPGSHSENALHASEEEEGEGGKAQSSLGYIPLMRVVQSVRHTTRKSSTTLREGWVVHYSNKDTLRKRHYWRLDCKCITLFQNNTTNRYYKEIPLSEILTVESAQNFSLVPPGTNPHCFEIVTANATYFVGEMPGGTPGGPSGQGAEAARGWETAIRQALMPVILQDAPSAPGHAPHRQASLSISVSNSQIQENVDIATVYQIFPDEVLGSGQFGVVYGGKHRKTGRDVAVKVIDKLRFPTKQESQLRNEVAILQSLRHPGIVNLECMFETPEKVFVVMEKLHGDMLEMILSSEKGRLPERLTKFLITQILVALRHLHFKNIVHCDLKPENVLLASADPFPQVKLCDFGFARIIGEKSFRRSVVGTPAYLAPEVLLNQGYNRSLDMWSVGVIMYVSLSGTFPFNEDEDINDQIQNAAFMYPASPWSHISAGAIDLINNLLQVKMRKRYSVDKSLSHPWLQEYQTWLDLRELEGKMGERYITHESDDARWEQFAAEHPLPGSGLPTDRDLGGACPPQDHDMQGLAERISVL
Conditions: kinase PKD2; 1 µmol/L single concentration; read-out: %-inhibition at 1 µmol/L, PKD2.

The mark [6] stands for this setting: kinase HER4, 1 µmol/L single concentration.

`CCN1C(=O)N(c2c(F)c(OC)cc(OC)c2F)Cc2cnc3[nH]c(CN4CCOCC4)cc3c21` [pemigatinib]: the inhibition at 1 µM in assay [1] was 17%; in assay [2] it was -3.59%; in assay [3], 8%; in assay [4] (setting [6]), 5%; in assay [5], 4.44%.

Consider `FC(F)(F)c1ccc(CNc2ccc(Cc3c[nH]c4ncc(Cl)cc34)cn2)cn1` [pexidartinib], for which the inhibition at 1 µM in assay [1] was -10%; in assay [2], -1.24%; in assay [3], 3%; in assay [4] (setting [6]), 13%; in assay [5] it was -5%.

For `CO[C@]1(C(=O)N[C@@H](C)c2ccc(-n3cc(F)cn3)nc2)CC[C@H](c2nc(C)cc(Nc3cc(C)[nH]n3)n2)CC1` [pralsetinib], the inhibition at 1 µM in assay [1] is 2.26%; in assay [2], -2.67%; in assay [3], 64%; in assay [4] (setting [6]), 53%; in assay [5], -9%.

With `CCn1c(=O)c(-c2cc(NC(=O)Nc3ccccc3)c(F)cc2Br)cc2cnc(NC)cc21` [ripretinib], the inhibition at 1 µM is 9% in assay [1]; -5% in assay [2]; 19% in assay [3]; 36% in assay [4] (setting [6]); 13% in assay [5].

For the compound `COc1ccc(CN2C3CC2CN(c2ccc(-c4cc(OCC(C)(C)O)cn5ncc(C#N)c45)cn2)C3)cn1` [selpercatinib], the inhibition at 1 µM in assay [1] was 2.16%; in assay [2], -10%; in assay [3], 12%; in assay [4] (setting [6]) it was 7.42%; in assay [5], 1.11%.

With `Cn1cnc2c(F)c(Nc3ccc(Br)cc3Cl)c(C(=O)NOCCO)cc21` [selumetinib], the inhibition at 1 µM in assay [1] was -0.188%; in assay [2], -2.62%; in assay [3], -0.622%; in assay [4] (setting [6]), 33%; in assay [5] it was -15%.

Consider `Cc1cc(Nc2ncnc3ccc(NC4=NC(C)(C)CO4)cc23)ccc1Oc1ccn2ncnc2c1` [tucatinib], for which the inhibition at 1 µM in assay [1] was 1.59%; in assay [2], -4%; in assay [3], 1.48%; in assay [4] (setting [6]) it was 94%; in assay [5], 44%.

As for `C=CC(=O)N1CCC([C@@H]2CCNc3c(C(N)=O)c(-c4ccc(Oc5ccccc5)cc4)nn32)CC1` [zanubrutinib], the inhibition at 1 µM in assay [1] came out at 2%; in assay [2], 0%; in assay [3] it was 5.37%; in assay [4], 99%; in assay [5] it was 2.31%.
